Paper PMC4957937 (Bioorganic & medicinal chemistry, 2016)
Starred links: 1 amine or outer side, 2 acyl side, 3 side chain; linkers in the order of their positions; H or OH if unused. Non-standard residues stand in square brackets, D forms with d. Residues, ends and D or L forms follow the SMILES beside them. Ahppa(3S,4S) = O=C(C[C@H](O)[C@H](Cc1ccccc1)N[*:1])[*:2]; dNMeF = CN[C@H](Cc1ccccc1)C(=O)O; NMeQ = CN[C@@H](CCC(N)=O)C(=O)O; Lac = C[C@H](O)C(=O)O

Biological target: BACE1 (Homo sapiens, UniProt P56817)
Assay: Antiproteolytic activity assay against BACE1
Assay type: biochemical
Settings: fold less potent against BACE1 than against cathepsins D and E

Sequence of BACE1 (P56817 46-501): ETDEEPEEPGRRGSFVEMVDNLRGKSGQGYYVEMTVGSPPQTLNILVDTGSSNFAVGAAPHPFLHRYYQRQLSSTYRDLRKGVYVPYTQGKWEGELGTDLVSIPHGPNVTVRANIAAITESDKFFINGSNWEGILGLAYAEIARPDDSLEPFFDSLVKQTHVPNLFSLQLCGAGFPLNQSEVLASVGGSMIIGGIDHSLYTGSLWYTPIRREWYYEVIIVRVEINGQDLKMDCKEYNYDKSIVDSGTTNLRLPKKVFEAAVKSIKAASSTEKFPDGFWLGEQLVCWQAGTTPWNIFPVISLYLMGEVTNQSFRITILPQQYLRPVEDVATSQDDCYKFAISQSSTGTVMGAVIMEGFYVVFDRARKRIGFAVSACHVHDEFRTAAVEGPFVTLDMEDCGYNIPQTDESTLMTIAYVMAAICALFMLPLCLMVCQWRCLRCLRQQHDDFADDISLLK

- Selectivity ratio IC50 BACE1/CatD–E: 12–30
SMILES: CC[C@H](C)[C@H](NC(=O)C[C@H](O)[C@H](Cc1ccccc1)NC(=O)[C@H](CCC(N)=O)N(C)C(=O)[C@@H](NC(=O)[C@H](C)O)[C@@H](C)CC)C(=O)NCC(=O)N(C)[C@H](Cc1ccccc1)C(=O)N1CCC[C@H]1C(=O)OC [Tasiamide F (1), Tasiamide F] (H-[Lac]I[NMeQ][Ahppa(3S,4S)]IG[dNMeF]P-OMe)
